Reference: patent US6399542B1, “Alkoxyimino-substituted bicyclic compounds compositions containing the same and method of making such compounds” (Agro-Kanesho Co., Ltd., priority 1997, dated 2002)
Where two headings read alike, the source gives them in different places.

How the values were obtained:
Type in all cases: in vivo
[1] = test system: Psecidoperonospora cubensis; experiment: Effect on Cucumber downy mildew (preventive spray test); conditions: 7 days after inoculation
Puccinia recondita = experiment: Effect on Wheat brown rust (preventive spray test); conditions: 7 days after inoculation
Erysiphe graminis = experiment: Effects on Barley powdery mildew (preventive spray test); conditions: lesions counted seven days after inoculation
Phytophthora infestans = conditions: Tomato late blight, 5 days after inoculation
[2] = conc. of active ingredient 20 ppm
[3] = conc. of active ingredient 100 ppm
[4] = conc. of active ingredient 4 ppm

Compound | Preventive rate (%) [1, 2] [%] | Preventive rate (%) [1, 3] [%] | Preventive rate (%) (Puccinia recondita; [4]) | Preventive rate (%) (Puccinia recondita; [2]) | Preventive rate (%) (Puccinia recondita; [3]) | also measured
CON=C(C(=O)OC)c1ccccc1COc1ccc2c(c1C)CCC2=NOCC=CCl [e-57] | 94 | 100 |  |  |  | 
CNC(=O)/C(=N/OC)c1ccccc1COc1ccc2c(c1C)OCC2=NOCC(=O)OC [a-54] |  |  | 100 | 100 | 100 | 
CON=C(C(=O)OC)c1ccccc1COc1ccc2c(c1C)OCCC2=NOCc1ccc(Cl)c(Cl)c1 [c-78] |  |  |  | 96 | 100 | 
C#CCON=C1CCc2c1ccc(OCc1ccccc1C(=NOC)C(=O)OC)c2C [e-60] | 88 | 100 |  |  |  | 
CO/N=C(/C(=O)OC)c1ccccc1COc1ccc2c(c1C)OCC2=NOCC=C(C)C [a-66] |  |  | 100 | 100 | 100 | 
CNC(=O)C(OC)c1ccccc1COc1ccc2c(c1)OCCC2=NOC (racemic) [c-11] |  |  |  | 93 | 99 | 
CCc1cc2c(cc1OCc1ccccc1/C(=N\OC)C(=O)OC)OCC2=NOC (single isomer, unassigned) [a-29] | 97 | 97 |  |  |  | 
CNC(=O)C(=NOC)c1ccccc1COc1ccc2c(c1C)OCCC2=NOCc1cccc(F)c1 [c-81] |  |  | 98 | 99 | 100 | Preventive rate (%) (Erysiphe graminis; [2]): 98%; Preventive rate (%) (Erysiphe graminis; [3]): 98%
CCc1c(OCc2ccccc2C(=NOC)C(=O)OC)ccc2c1OCCC2=NOC [c-29] |  |  | 96 | 100 | 100 | Preventive rate (%) (Erysiphe graminis; [2]): 95%; Preventive rate (%) (Erysiphe graminis; [3]): 99%
CNC(=O)C(=NOC)c1ccccc1COc1ccc2c(c1C)OCCC2=NOCC=C(C)C [c-67] |  |  | 100 | 100 | 100 | Preventive rate (%) (Erysiphe graminis; [2]): 100%; Preventive rate (%) (Erysiphe graminis; [3]): 100%
CON=C(C(=O)OC)c1ccccc1COc1ccc2c(c1C)CCC2=NOC [e-15] | 95 | 100 |  | 98 | 99 | 
CNC(=O)C(=NOC)c1ccccc1COc1ccc2c(c1C)OCCC2=NOCC#N [c-49] |  |  | 91 | 93 | 94 | 
CNC(=O)/C(=N/OC)c1ccccc1COc1ccc2c(c1C)OCC2=NOCC=C(C)C [a-67] | 100 | 100 | 100 | 100 | 100 | Preventive rate (%) (Phytophthora infestans; [2]): 88%; Preventive rate (%) (Phytophthora infestans; [3]): 100%
CNC(=O)C(=NOC)c1ccccc1COc1ccc2c(c1C)OCCC2=NOCC=CCl [c-62] |  |  | 100 | 100 | 100 | Preventive rate (%) (Phytophthora infestans; [2]): 100%; Preventive rate (%) (Phytophthora infestans; [3]): 100%; Preventive rate (%) (Erysiphe graminis; [4]): 96%; Preventive rate (%) (Erysiphe graminis; [2]): 100%; Preventive rate (%) (Erysiphe graminis; [3]): 100%
CNC(=O)C(=NOC)c1ccccc1COc1ccc2c(c1C)OCCC2=NOCc1cccc2ccccc12 [c-89] |  |  | 96 | 100 | 100 | Preventive rate (%) (Erysiphe graminis; [2]): 92%; Preventive rate (%) (Erysiphe graminis; [3]): 98%
C/C=C/CON=C1COc2c1ccc(OCc1ccccc1/C(=N\OC)C(=O)NC)c2C [a-65] | 94 | 100 |  | 100 | 100 | Preventive rate (%) (Phytophthora infestans; [2]): 97%; Preventive rate (%) (Phytophthora infestans; [3]): 100%
CNC(=O)/C(=N/OC)c1ccccc1COc1ccc2c(c1C)OCC2=NOCC#N [a-49] | 100 | 100 | 100 | 100 | 100 | Preventive rate (%) [1, 4]: 88%; Preventive rate (%) (Phytophthora infestans; [2]): 97%; Preventive rate (%) (Phytophthora infestans; [3]): 97%
CON=C(C(=O)OC)c1ccccc1COc1ccc2c(c1)OCCC2=NOCC=CCl [c-63] |  |  |  | 99 | 100 | 

Compound | Preventive rate (%) [1, 2] [%] | Preventive rate (%) [1, 3] [%] | Preventive rate (%) (Puccinia recondita; [4]) | Preventive rate (%) (Puccinia recondita; [2]) | Preventive rate (%) (Puccinia recondita; [3]) | also measured
CO/N=C(/C(=O)OC)c1ccccc1COc1ccc2c(c1C)OCC2=NOCc1ccccc1 [a-72] |  |  |  | 100 | 100 | 
CON=C(C(=O)OC)c1ccccc1COc1ccc2c(c1C)OCCC2=NOCC#N [c-48] |  |  | 100 | 100 | 100 | 
CON=C(C(=O)OC)c1ccccc1COc1ccc2c(c1C)OCCC2=NOCc1cccc(F)c1 [c-80] |  |  |  | 98 | 100 | 
CNC(=O)/C(=N/OC)c1ccccc1COc1ccc2c(c1C)OCC2=NOCc1ccccc1 [a-73] | 88 | 88 | 100 | 100 | 100 | Preventive rate (%) (Erysiphe graminis; [4]): 98%; Preventive rate (%) (Erysiphe graminis; [2]): 100%; Preventive rate (%) (Erysiphe graminis; [3]): 100%
CNC(=O)/C(=N/OC)c1ccccc1COc1ccc2c(c1C)OCC2=NOCc1ccc(Cl)c(Cl)c1 [a-79] |  |  | 98 | 98 | 100 | 
CON=C(C(=O)OC)c1ccccc1COc1cc2c(cc1C)C(=NOC)CCO2 [c-26] | 100 | 100 |  | 98 | 99 | 
CON=C(C(=O)OC)c1ccccc1COc1ccc2c(c1C)OCCC2=NOCc1c(F)c(F)c(F)c(F)c1F [c-82] |  |  |  | 96 | 100 | Preventive rate (%) (Erysiphe graminis; [2]): 86%; Preventive rate (%) (Erysiphe graminis; [3]): 100%
CON=C(C(=O)OC)c1ccccc1COc1ccc2c(c1C)OCCC2=NOC(C)(C)C [c-52] |  |  |  | 93 | 100 | 
CCc1cc2c(cc1OCc1ccccc1/C(=N\OC)C(=O)NC)OCC2=NOC [a-32] | 81 | 97 |  |  |  | Preventive rate (%) (Phytophthora infestans; [2]): 98%; Preventive rate (%) (Phytophthora infestans; [3]): 91%
CNC(=O)C(=NOC)c1ccccc1COc1ccc2c(c1C)OCCC2=NOCc1ccc(Cl)c(Cl)c1 [c-79] |  |  | 97 | 100 | 100 | Preventive rate (%) (Erysiphe graminis; [2]): 100%; Preventive rate (%) (Erysiphe graminis; [3]): 100%
CON=C(C(=O)OC)c1ccccc1COc1ccc2c(c1C)OCCC2=NOCC=CCl [c-61] |  |  | 99 | 100 | 100 | 
CON=C1CCOc2cc(OCc3ccccc3N(OC)C(=O)OC)ccc21 [c-7] | 94 | 100 |  | 99 | 100 | 
CO/N=C(/C(=O)OC)c1ccccc1COc1ccc2c(c1C)OCC2=NOCc1ccc(Cl)c(Cl)c1 [a-78] |  |  | 95 | 100 | 100 | 
CCc1cc2c(cc1OCc1ccccc1/C(=N\OC)C(=O)NC)OCC2=NOC (single isomer, unassigned) [a-31] |  |  |  |  |  | Preventive rate (%) (Erysiphe graminis; [2]): 99%; Preventive rate (%) (Erysiphe graminis; [3]): 100%
CON=C1CCc2cc(OCc3ccccc3C(=NOC)C(=O)OC)ccc21 [e-4] |  |  |  | 98 |  | 
CON=C(C(=O)OC)c1ccccc1COc1cc2c(cc1C)C(=NOC)C(C)C2 (single isomer, unassigned) [f-9] | 100 | 100 |  |  |  | Preventive rate (%) [1, 4]: 100%; Preventive rate (%) (Phytophthora infestans; [2]): 93%; Preventive rate (%) (Phytophthora infestans; [3]): 98%
CCCCON=C1CCOc2c1ccc(OCc1ccccc1C(=NOC)C(=O)NC)c2C [c-43] |  |  |  | 93 |  | 
CO/N=C(/C(=O)OC)c1ccccc1COc1ccc2c(c1C)OCC2=NOCC#N [a-48] | 100 | 100 | 100 | 100 | 100 | Preventive rate (%) (Phytophthora infestans; [2]): 81%; Preventive rate (%) (Phytophthora infestans; [3]): 94%
